Laboratory results as given in US10617140B2, “Iron-fortified food composition” (NESTEC S.A., priority 2015, dated 2020).

Assay: Fortification of water: iron content on storage, ICP-AES (Example 7)
Assay type: physicochemical
Protocol: Processed water enriched with 20-30 ppm of sodium and potassium (600 mL) was iron fortified by the addition of different iron ingredients as reported in Table 10. The amounts were chosen to provide approximately 2.1 mg of iron per litre of water. The water was stored in an oven at 40° C. for 18 weeks. The iron content was measured for each sample through ICP-AES.

With Ferrous sulfate the “Iron content, Week 1” value (processed water fortified at approx. 2.1 mg iron per litre, stored at 40° C., ICP-AES, week 1) was 0 (Precipitate), the “Iron content, Week 18” value (processed water fortified at approx. 2.1 mg iron per litre, stored at 40° C., ICP-AES, week 18) was 0 (Precipitate) and the “Behaviour in fortified water (precipitation / remaining in solution)” value (processed water stored at 40° C., up to 18 weeks) was “precipitates almost instantaneously”.
